From patent US10080758B2, “Tosylate salt of N-[3-[(4aR,7aS)-2-amino-6-(5-fluoropyrimidin-2-yl)-4,4a,5,7-tetrahydropyrrolo[3,4-d][1,3]thiazin-7a-yl]-4-fluoro-phenyl]-5-methoxy-pyrazine-2-carboxamide” (Eli Lilly and Company, priority 2015, dated 2018)

Experiments:
[1] = Solid state physical stability versus relative humidity; assay type: physicochemical; details: room temperature
Text: Such physical instability is undesirable, particularly for a pharmaceutical drug substance or drug product, both of which are subject to regulatory controls regarding the solid state forms. […] As such, the tosylate salt of N-{3-[(4aR,7aS)-2-amino-6-(5-fluoropyrimidin-2-yl)-4a,5,6,7-tetrahydropyrrolo[3,4-d][1,3]thiazin-7a(4H)-yl]-4-fluoro-phenyl}-5-methoxypyrazine-2-carboxamide essentially avoids the humidity dependent phase transformations associated with the corresponding crystalline free base forms. […] The increased likelihood of the free base to undergo phase transitions during long term storage can lead to variability in properties, such as solubility or dissolution rate, which may compromise the performance of the drug product. It also poses the additional risk of collapse of the crystal structure(s) to an amorphous form or accumulation of defects and disorder, which could lead to chemical instability and reduced shelf-life of the drug product.

[2] = Solvent retained in the crystal; assay type: physicochemical
[3] = tested on: Abeta released by primary cortical neurons from PDAPP embryos; experiment: PDAPP primary neuronal assay (Abeta ELISA); assay type: cell-based; details: Mus musculus, Primary cortical neuron; 24 hours incubation; Abeta 1-42; Mean ± SEM; read-out: PDAPP Neuron A-beta (1-42) ELISA IC50
Abeta 1-x peptide = experiment: In vivo inhibition of beta-secretase (brain Abeta 1-x lowering); parameters: species or system mice; details: for Abeta 1-x peptide levels reduced, brain cortex / Abeta 1-x peptide levels reduced, brain hippocampus: three hours after administration, compared to vehicle-treated mice
Text: Several animal models, including mouse, guinea pig, dog, and monkey, may be used to screen for inhibition of beta-secretase activity in vivo following compound treatment. Animals used in this invention can be wild type, transgenic, or gene knockout animals. For example, the PDAPP mouse model, prepared as described in Games et al., Nature 373, 523-527 (1995), and other non-transgenic or gene knockout animals are useful to analyze in vivo inhibition of Abeta and sAPPbeta production in the presence of inhibitory compounds. Generally, 2 to 12 month old PDAPP mice, gene knockout mice or non-transgenic animals are administered compound formulated in vehicles, such as corn oil, cyclodextran, phosphate buffers, […]®, or other suitable vehicles. One to twenty-four hours following the administration of compound, animals are sacrificed, and brains as well as cerebrospinal fluid and plasma are removed for analysis of Abetas, C99, and sAPP fragments. (See May, et al., Journal of Neuroscience, 31, 16507-16516 (2011)). For standard in vivo pharmacology studies, animals are dosed with various concentrations of compound and compared to a vehicle-treated control group dosed at the same time. For some time course studies, brain tissue, plasma, or cerebrospinal fluid is obtained from selected animals, beginning at time 0 to establish a baseline. Compound or appropriate vehicle is administered to other groups and sacrificed at various times after dosing. Brain tissue, plasma, or cerebrospinal fluid is obtained from selected animals and analyzed for the presence of APP cleavage products, including Abeta peptides, sAPPbeta, and other APP fragments, for example, by specific sandwich ELISA assays. At the end of the test period, animals are sacrificed and brain tissues, plasma, or cerebrospinal fluid are analyzed for the presence of Abeta peptides, C99, and sAPPbeta, as appropriate. Brain tissues of APP transgenic animals may also be analyzed for the amount of beta-amyloid plaques following compound treatment. “Abeta 1-x peptide” as used herein refers to the sum of Abeta species that begin with residue 1 and ending with a C-terminus greater than residue 28. This detects the majority of Abeta species and is often called “total Abeta”.

In the case of `COc1cnc(C(=O)Nc2ccc(F)c([C@]34CN(c5ncc(F)cn5)C[C@@H]3CN=C(N)S4)c2)cn1.O` [Crystalline Form 2, Crystalline Form 2 N-[3-[(4aR,7aS)-2-Amino-6-(5-fluoropyrimidin-2-yl)-4,4a,5,7-tetrahydropyrrolo[3,4-d][1,3]thiazin-7a-yl]-4-fluoro-phenyl]-5-methoxy-pyrazine-2-carboxamide (Hydrated)], the “relative humidity at which the crystal form is present / stable” value [1] is reported as “greater than 15 % relative humidity” and the “relative humidity at which the crystal form is present / stable” value ([1]; listed as crystalline form 2) is reported as “above 15 % relative humidity”.
For `COc1cnc(C(=O)Nc2ccc(F)c([C@]34CN(c5ncc(F)cn5)C[C@H]3CSC(N)=N4)c2)cn1.Cl` [Preparation 46, N-[3-[(4aR,7aS)-2-Amino-6-(5-fluoropyrimidin-2-yl)-4,4a,5,7-tetrahydropyrrolo[3,4-d][1,3]thiazin-7a-yl]-4-fluoro-phenyl]-5-methoxy-pyrazine-2-carboxamide hydrochloride], the “amount of solvent retained in the crystal” value [2] was “about 7.7%”, the IC50 [3] was 0.228 nM and the “Abeta 1-x peptide levels reduced, brain cortex” value (Abeta 1-x peptide; 0.3 mg/kg oral dose) was “approximately 28%”. The “Abeta 1-x peptide levels reduced, brain hippocampus” value (Abeta 1-x peptide; 0.3 mg/kg oral dose) was “approximately 31%”, the “Abeta 1-x peptide levels reduced, brain cortex” value (Abeta 1-x peptide; 1 mg/kg oral dose) was roughly 42% and the “Abeta 1-x peptide levels reduced, brain hippocampus” value (Abeta 1-x peptide; 1 mg/kg oral dose) was roughly 39%. The “Abeta 1-x peptide levels reduced, brain cortex” value (Abeta 1-x peptide; 3 mg/kg oral dose) was roughly 64% and the “Abeta 1-x peptide levels reduced, brain hippocampus” value (Abeta 1-x peptide; 3 mg/kg oral dose) was roughly 61%.
In the case of `COc1cnc(C(=O)Nc2ccc(F)c([C@]34CN(c5ncc(F)cn5)C[C@H]3CSC(N)=N4)c2)cn1` [N-[3-[(4aR,7aS)-2-amino-6-(5-fluoropyrimidin-2-yl)-4,4a,5,7-tetrahydropyrrolo[3,4-d][1,3]thiazin-7a-yl]-4-fluoro-phenyl]-5-methoxy-pyrazine-2-carboxamide], the CNS penetration (Abeta 1-x peptide) is reported as “demonstrate CNS penetration”.
